Consider three compounds from patent US20050075334A1, “Novel compounds” (priority 2001, published 2005).

Molecules are shown by their SMILES. A value given as a limit tells only on which side of the number the result lay.

By melting point is commonly meant the temperature of the solid-liquid transition. In the case of `COC(=O)c1cccc2[nH]c(Sc3cccc4c(=O)cc[nH]c34)nc12` [Example 3, 2-(4-Oxo-1,4-dihydro-quinolin-8-ylsulfanyl)-1H-benzoimidazole-4-carboxylic Acid Methyl Ester], the melting point was more than 250 °C. As for `N#Cc1c(Cl)ccc2[nH]c(Sc3cccc4c(=O)cc[nH]c34)nc12` [Example 8, 5-Chloro-2-[(4-oxo-1,4-dihydroquinolin-8-yl)thio]-1H-benzimidazole-4-carbonitrile], the melting point was 376 °C (dec.). The result for `C[S+]([O-])c1c[nH]c2c(Sc3nc4cc(Cl)ccc4[nH]3)ccc([N+](=O)[O-])c12` (stereo not drawn) [Example 16, 5-Chloro-2-([3-(methylsulfinyl)-4-nitro-1H-indol-7-yl]thio}-1H-benzimidazole] reads 243 to 246 °C.
